Reference: patent US20240270695A1, “COMPOUNDS, COMPOSITIONS AND METHODS OF TREATING DISORDERS” (Chengdu Anticancer Bioscience LTD, priority 2021, published 2024)

What was measured:
[1] = test system: RPE-Neo or RPE-MYC or RPE-MYC expressing an EGFP-Histone 2B fusion protein; assay: Phenotypic screening assay (arrest in mitosis, change in DNA content, cell death; GE IN-Cell Analyzer 2000); format: cell-based; conditions: Homo sapiens, compounds 20 nM to 20 μM, 24, 48 or 72 hours
[2] = test system: RPE-Neo or RPE-MYC or RPE-MYC expressing an EGFP-Histone 2B fusion protein; assay: MTT assays of cellular proliferation; format: cell-based; conditions: Homo sapiens, min. effective conc., read-out: Proliferative arrest (<50%)
[3] = read-out: Min. Effective conc. for Polyploidy (≥10%)
[4] = min. effective conc., read-out: Cell Death (>30%)
[5] = min. effective conc., read-out: Mitotic Arrest (≥10%)

Row | SMILES | minimal effective concentration [1, 3] [µM] | minimal effective concentration [1, 4] [µM] | minimal effective concentration [1, 5] [µM] | minimal effective concentration [2] [µM]
1 | CNC(=O)C1=C(O)c2ccc(OCc3ccsc3)cc2N(Cc2ccc(C)c(F)c2)C(=O)C1 [Example 134, 1-(3-fluoro-4-methylbenzyl)-5-hydroxy-N-methyl-2-oxo-8-(thiophen-3-ylmethoxy)-2,3-dihydro-1H-benzo[b]azepine-4-carboxamide] | 1 to 10 | 1 to 10 | 1 to 10 | 1 to 10
2 | CNC(=O)C1=C(O)c2ccccc2N(Cc2ccc(OC)c(C(F)(F)F)c2)C(=O)C1 [Example 123, 5-hydroxy-1-(4-methoxy-3-(trifluoromethyl)benzyl)-N-methyl-2-oxo-2,3-dihydro-1H-benzo[b]azepine-4-carboxamide] | 30 to 1000 | 30 to 1000 | 30 to 1000 | 30 to 1000
3 | CNC(=O)C1=C(O)c2ccccc2N(Cc2cc(C)c(F)c(C)c2)C(=O)C1 [Example 121, 1-(4-fluoro-3,5-dimethylbenzyl)-5-hydroxy-N-methyl-2-oxo-2,3-dihydro-1H-benzo[b]azepine-4-carboxamide] | 10 to 30 | 10 to 30 | 10 to 30 | 10 to 30
4 | CNC(=O)C1=C(O)c2ccccc2N(Cc2ccsc2)C(=O)C1 [Example 71, 5-hydroxy-N-methyl-2-oxo-1-(thiophen-3-ylmethyl)-2,3-dihydro-1H-benzo[b]azepine-4-carboxamide] | 30 to 1000 | 30 to 1000 | 30 to 1000 | 30 to 1000
5 | CNC(=O)C1=C(O)c2ccc(OC)cc2N(Cc2ccc(C)c(F)c2)C(=O)C1 [Example 127, 1-(3-fluoro-4-methylbenzyl)-5-hydroxy-8-methoxy-N-methyl-2-oxo-2,3-dihydro-1H-benzo[b]azepine-4-carboxamide] | 0.001 to 1 | 0.001 to 1 | 0.001 to 1 | 0.001 to 1
6 | CNC(=O)C1=C(O)c2ccccc2N(Cc2ccc(C(F)(F)F)cc2)C(=O)C1 [Example 84, 5-hydroxy-N-methyl-2-oxo-1-(4-(trifluoromethyl)benzyl)-2,3-dihydro-1H-benzo[b]azepine-4-carboxamide] | 30 to 1000 | 30 to 1000 | 10 to 30 | 30 to 1000
7 | CNC(=O)C1=C(O)c2ccccc2N(Cc2cccnc2)C(=O)C1 [Example 75, 5-hydroxy-N-methyl-2-oxo-1-(pyridin-3-ylmethyl)-2,3-dihydro-1H-benzo[b]azepine-4-carboxamide] | 30 to 1000 | 30 to 1000 | 30 to 1000 | 30 to 1000
8 | COC(=O)C1=C(O)c2ccccc2N(Cc2cccc(F)c2)C(=O)C1 [Example 8, Methyl 1-(3-fluorobenzyl)-5-hydroxy-2-oxo-2,3-dihydro-1H-benzo[b]azepine-4-carboxylate] |  |  |  | 30 to 1000
9 | COC(=O)C1=C(O)c2ccccc2N(Cc2cnc3ccccc3c2)C(=O)C1 [Example 12, Methyl 5-hydroxy-2-oxo-1-(quinolin-3-ylmethyl)-2,3-dihydro-1H-benzo[b]azepine-4-carboxylate] |  | 30 to 1000 |  | 
10 | COC(=O)C1=C(O)c2ccccc2N(Cc2cc(F)cc(F)c2)C(=O)C1 [Example 20, Methyl 1-(3,5-difluorobenzyl)-5-hydroxy-2-oxo-2,3-dihydro-1H-benzo[b]azepine-4-carboxylate] | 30 to 1000 | 30 to 1000 | 30 to 1000 | 
11 | CCc1ccc(CN2C(=O)CC(C(=O)OC)=C(O)c3ccccc32)cc1 [Example 37, Methyl 1-(4-ethylbenzyl)-5-hydroxy-2-oxo-2,3-dihydro-1H-benzo[b]azepine-4-carboxylate] | 0.001 to 1 | 0.001 to 1 | 0.001 to 1 | 
12 | COC(=O)C1=C(O)c2ccccc2N(Cc2ccccc2C)C(=O)C1 [Example 35, Methyl 5-hydroxy-1-(2-methylbenzyl)-2-oxo-2,3-dihydro-1H-benzo[b]azepine-4-carboxylate] | 30 to 1000 | 30 to 1000 | 30 to 1000 | 
13 | COC(=O)Cc1ccc(CN2C(=O)CC(C(=O)OC)=C(O)c3ccccc32)cc1 [Example 42, Methyl 5-hydroxy-1-(4-(2-methoxy-2-oxoethyl)benzyl)-2-oxo-2,3-dihydro-1H-benzo[b]azepine-4-carboxylate] |  |  |  | 30 to 1000
14 | COC(=O)C1=C(O)c2ccccc2N(Cc2ccc(OC(F)(F)F)cc2)C(=O)C1 [Example 32, Methyl 5-hydroxy-2-oxo-1-(4-(trifluoromethoxy)benzyl)-2,3-dihydro-1H-benzo[b]azepine-4-carboxylate] |  |  |  | 30 to 1000
15 | COC(=O)C1=C(O)c2cc(OC)c(OC)cc2N(Cc2ccc(C)c(F)c2)C(=O)C1 [Example 54, Methyl 1-(3-fluoro-4-methylbenzyl)-5-hydroxy-7,8-dimethoxy-2-oxo-2,3-dihydro-1H-benzo[b]azepine-4-carboxylate] | 0.001 to 1 | 0.001 to 1 | 0.001 to 1 | 
16 | COC(=O)C1=C(O)c2ccccc2N(Cc2ccc(C#N)cc2)C(=O)C1 [Example 26, Methyl 1-(4-cyanobenzyl)-5-hydroxy-2-oxo-2,3-dihydro-1H-benzo[b]azepine-4-carboxylate] |  |  |  | 30 to 1000
17 | COC(=O)C1=C(O)c2cc(F)ccc2N(Cc2ccc(C)c(F)c2)C(=O)C1 [Example 52, Methyl 7-fluoro-1-(3-fluoro-4-methylbenzyl)-5-hydroxy-2-oxo-2,3-dihydro-1H-benzo[b]azepine-4-carboxylate] | 0.001 to 1 | 0.001 to 1 | 0.001 to 1 | 
18 | Cc1ccc(CN2C(=O)CC(C(=O)C3CCCO3)=C(O)c3ccccc32)cc1F (stereo not drawn) [Example 62, 1-(3-fluoro-4-methylbenzyl)-5-hydroxy-4-(tetrahydrofuran-2-carbonyl)-1,3-dihydro-2H-benzo[b]azepin-2-one] | 1 to 10 | 1 to 10 | 1 to 10 | 
19 | COC(=O)C1=C(O)c2ccccc2N(Cc2cccc(C)c2C)C(=O)C1 [Example 17, Methyl 1-(2,3-dimethylbenzyl)-5-hydroxy-2-oxo-2,3-dihydro-1H-benzo[b]azepine-4-carboxylate] | 1 to 10 | 1 to 10 | 1 to 10 | 
20 | COC(=O)C1=C(O)c2ccccc2N(Cc2cc(F)c(F)c(F)c2)C(=O)C1 [Example 28, Methyl 5-hydroxy-2-oxo-1-(3,4,5-trifluorobenzyl)-2,3-dihydro-1H-benzo[b]azepine-4-carboxylate] |  | 30 to 1000 |  | 
21 | CC(=O)C1=C(O)c2ccccc2N(Cc2ccc(C)c(F)c2)C(=O)C1 [Example 56, 4-acetyl-1-(3-fluoro-4-methylbenzyl)-5-hydroxy-1,3-dihydro-2H-benzo[b]azepin-2-one] | 1 to 10 |  | 1 to 10 | 
22 | COC(=O)C1=C(O)c2ccccc2N(Cc2c(C)cccc2C)C(=O)C1 [Example 16, Methyl 1-(2,6-dimethylbenzyl)-5-hydroxy-2-oxo-2,3-dihydro-1H-benzo[b]azepine-4-carboxylate] |  | 30 to 1000 |  | 
23 | Cc1ccc(CN2C(=O)CC(C(=O)NC(C)C)=C(O)c3ccccc32)cc1F [Example 65, 1-(3-fluoro-4-methylbenzyl)-5-hydroxy-N-isopropyl-2-oxo-2,3-dihydro-1H-benzo[b]azepine-4-carboxamide] | 1 to 10 | 1 to 10 | 1 to 10 | 
24 | COC(=O)C1=C(O)c2ccccc2N(Cc2cccc(C)c2)C(=O)C1 [Example 5, Methyl 5-hydroxy-1-(3-methylbenzyl)-2-oxo-2,3-dihydro-1H-benzo[b]azepine-4-carboxylate] | 30 to 1000 | 30 to 1000 | 30 to 1000 | 
25 | COC(=O)C1=C(O)c2ccccc2N(Cc2cccc(F)c2F)C(=O)C1 [Example 22, Methyl 1-(2,3-difluorobenzyl)-5-hydroxy-2-oxo-2,3-dihydro-1H-benzo[b]azepine-4-carboxylate] |  | 30 to 1000 |  | 
26 | COC(=O)C1=C(O)c2ccccc2N(Cc2ccc(F)cc2F)C(=O)C1 [Example 18, Methyl 1-(2,4-difluorobenzyl)-5-hydroxy-2-oxo-2,3-dihydro-1H-benzo[b]azepine-4-carboxylate] | 30 to 1000 | 30 to 1000 | 30 to 1000 | 
27 | CCCc1ccc(CN2C(=O)CC(C(=O)OC)=C(O)c3ccccc32)cc1 [Example 49, Methyl 5-hydroxy-2-oxo-1-(4-propylbenzyl)-2,3-dihydro-1H-benzo[b]azepine-4-carboxylate] | 10 to 30 | 10 to 30 | 10 to 30 | 
28 | CCCCc1ccc(CN2C(=O)CC(C(=O)OC)=C(O)c3ccccc32)cc1 [Example 50, Methyl 1-(4-butylbenzyl)-5-hydroxy-2-oxo-2,3-dihydro-1H-benzo[b]azepine-4-carboxylate] | 10 to 30 | 10 to 30 | 10 to 30 | 
29 | COC(=O)C1=C(O)c2ccccc2N(Cc2cc(OC)cc(OC)c2)C(=O)C1 [Example 11, Methyl 1-(3,5-dimethoxybenzyl)-5-hydroxy-2-oxo-2,3-dihydro-1H-benzo[b]azepine-4-carboxylate] |  |  |  | 30 to 1000
